Data published in a compilation of properties of binary mixtures (doi:10.1007/s10973-016-5820-0).

Assay: xn = mol fraction of the nth substance listed
Conditions: 100 kPa

CCCC[n+]1ccn(C)c1.F[B-](F)(F)F + O=C1CCCCC1
x1 = 1
Conditions | speed of sound [m/s]
293.15 K | 1578.1
298.15 K | 1565.5
303.15 K | 1554.1
308.15 K | 1542.3

O=C1CCCCC1 + CCCC[n+]1ccn(C)c1.F[B-](F)(F)F
speed of sound [m/s]
Conditions | 293.15 K | 298.15 K | 303.15 K | 308.15 K
x2 = 0 | 1431.2 | – | 1395.1 | 1375.1
x2 = 0.0736 | 1425.9 | 1409.5 | 1390.7 | –
x2 = 0.1128 | 1424.7 | 1408.5 | – | –
x2 = 0.1597 | 1424.6 | – | 1390.2 | 1371.2
x2 = 0.2045 | – | 1409.9 | 1391.8 | 1373
x2 = 0.2459 | – | 1412.1 | 1394.2 | 1375.6
x2 = 0.2933 | 1431.3 | – | – | 1379.7
x2 = 0.3481 | 1436.6 | 1421.1 | 1403.7 | –
x2 = 0.3956 | 1442.2 | 1426.9 | 1409.8 | 1392
x2 = 0.4429 | 1448.6 | 1433.5 | 1416.7 | 1399.3
x2 = 0.4937 | 1456.5 | 1441.6 | 1425.2 | 1408.1
x2 = 0.5344 | 1463.5 | 1448.7 | 1432.6 | 1415.8
x2 = 0.5938 | 1474.6 | 1460.1 | 1444.5 | 1428.2
x2 = 0.6557 | 1487.3 | 1473.1 | – | 1442.4
x2 = 0.7028 | 1497.8 | 1483.8 | 1469.3 | 1454
x2 = 0.7409 | 1506.7 | 1493 | – | –
x2 = 0.7973 | 1520.6 | 1507.2 | 1493.7 | 1479.5
x2 = 0.8564 | 1536.1 | 1523 | 1510.2 | 1496.7
x2 = 0.9047 | 1549.6 | 1536.7 | 1524.4 | –
